{"source": "patent US11541057B2", "about": "“Thienopyrimidinone NMDA receptor modulators and uses thereof” (Cadent Therapeutics, Inc., priority 2015, dated 2023)"}
{"molecular_target": "T1, NMDA receptor GRIN1/GRIN2B (NR2B) expressed in HEK293 cells (Homo sapiens, UniProt Q13224)", "T1 construct": "host or cells: HEK293", "T1 sequence (Q13224 27-1484, other chains not shown)": "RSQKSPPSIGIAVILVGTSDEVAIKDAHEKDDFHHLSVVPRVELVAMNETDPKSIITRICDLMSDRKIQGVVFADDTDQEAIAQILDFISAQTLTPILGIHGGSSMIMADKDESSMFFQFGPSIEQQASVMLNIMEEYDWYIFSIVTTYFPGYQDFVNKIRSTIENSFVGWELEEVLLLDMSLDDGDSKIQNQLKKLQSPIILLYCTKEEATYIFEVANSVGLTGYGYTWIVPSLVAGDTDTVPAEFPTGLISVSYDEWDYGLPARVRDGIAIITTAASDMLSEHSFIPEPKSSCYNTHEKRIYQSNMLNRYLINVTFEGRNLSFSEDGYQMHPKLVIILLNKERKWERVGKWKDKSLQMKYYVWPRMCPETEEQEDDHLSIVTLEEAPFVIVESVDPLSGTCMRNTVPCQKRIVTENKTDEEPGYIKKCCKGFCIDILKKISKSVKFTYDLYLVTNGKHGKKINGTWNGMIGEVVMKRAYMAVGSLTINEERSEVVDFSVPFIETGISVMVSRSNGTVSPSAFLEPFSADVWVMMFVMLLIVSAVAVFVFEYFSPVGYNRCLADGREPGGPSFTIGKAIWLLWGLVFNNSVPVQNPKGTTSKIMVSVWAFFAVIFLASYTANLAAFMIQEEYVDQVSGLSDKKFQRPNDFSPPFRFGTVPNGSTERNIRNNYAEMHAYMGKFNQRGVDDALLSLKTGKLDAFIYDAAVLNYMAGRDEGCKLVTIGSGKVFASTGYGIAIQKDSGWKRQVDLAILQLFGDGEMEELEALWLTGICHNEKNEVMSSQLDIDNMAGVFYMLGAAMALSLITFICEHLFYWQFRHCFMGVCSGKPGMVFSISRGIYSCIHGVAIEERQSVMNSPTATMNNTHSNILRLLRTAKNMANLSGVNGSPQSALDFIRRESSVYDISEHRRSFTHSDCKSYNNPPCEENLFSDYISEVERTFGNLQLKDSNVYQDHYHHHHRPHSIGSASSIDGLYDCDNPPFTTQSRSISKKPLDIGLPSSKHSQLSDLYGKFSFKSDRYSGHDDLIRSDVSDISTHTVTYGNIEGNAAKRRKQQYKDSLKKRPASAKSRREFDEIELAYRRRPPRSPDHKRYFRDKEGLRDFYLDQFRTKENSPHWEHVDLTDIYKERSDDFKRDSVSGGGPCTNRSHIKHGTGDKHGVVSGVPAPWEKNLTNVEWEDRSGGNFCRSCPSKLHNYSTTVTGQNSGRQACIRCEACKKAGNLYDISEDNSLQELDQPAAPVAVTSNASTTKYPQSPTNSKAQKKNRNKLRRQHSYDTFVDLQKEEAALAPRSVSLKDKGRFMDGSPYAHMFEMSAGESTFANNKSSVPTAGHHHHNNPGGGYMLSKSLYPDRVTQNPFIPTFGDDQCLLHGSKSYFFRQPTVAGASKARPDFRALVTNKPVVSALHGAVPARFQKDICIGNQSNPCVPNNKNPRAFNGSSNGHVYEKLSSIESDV", "assay": "Reversal of Ro 25-6981-mediated suppression of the Ca2+ response (fluo-8 fluorescence, FDSS) in HEK293 cells expressing GRIN1 and GRIN2B", "type": "cell-based", "details": "% reversal=100*(R−Rneg)/(Rpos−Rneg) of Ro 25-6981 suppression of co-agonist (glutamate/glycine) Ca2+ response, 10 min pre-incubation, compound concentration not given", "protocol": "HEK293 cells with constructs conferring stable expression of the GRIN1 gene and tetracycline-inducible expression of the GRIN2B gene (Chantest, Cleveland, Ohio) are grown to ˜75% confluence in tissue culture flasks at 37° C., 5% CO2. NR2B expression is induced by overnight incubation with 0.3-0.4 μg/ml tetracycline in the presence of 2.5 mM ARL-15896 at 37° C., followed by moving to 30° C. for 3-5 hours. Cells are next harvested using TripleExpress™ (Life Technologies, Carlsbad, Calif.) according to the manufacturer's instructions, first removing culture medium, rinsing with Dulbecco's phosphate buffered saline (Ca^2+ and Mg^2+-free), and then adding the TripleExpress™ reagent. Harvested cells are spun down, washed twice in Ca^2+- and Mg^2+-free Hank's Balanced Salt Solution with 20 mM HEPES and 10 mM glucose, pH 7.4 (HHnoCa solution), and counted with viability assessed using Trypan Blue. Cells are loaded with fluo-8 Ca^2+-sensitive dye in HHnoCa solution according to the manufacturer's directions (AAT Bioquest, Sunnyvale, Calif.), incubating at 37° C. for 20 minutes followed by 25 minutes at 22-25° C. After a wash in HHnoCa to remove extracellular dye, cells are resuspended in HHnoCa and plated at […] cells per well in a volume of 25 μl/well in 384 well black-wall, clear bottom plates (Hamamatsu, Middlesex, N.J.). Plates are then centrifuged to create a monolayer in the wells and stored in the dark until used.\nPrior to analysis, compound plates are prepared with each compound at 6× the final desired concentration. From stock solutions at 10 mM in 100% DMSO, compounds are spotted in the desired amounts using an ECHO liquid handler (Labcyte, Sunnyvale, Calif.) into wells of a 384-well plate and then diluted with 50 μl of HHnoCa containing 750 nM Ro 25-6981 and 120 μM 5,7-dichlorokynurenic acid (both purchased from Tocris Bioscience (Bristol, England) and maintained as 10 mM stock solutions in 100% DMSO). To insure complete compound dissolution, these plates are then placed in an orbital shaker for at least one hour. Also prepared prior to the assay is a co-agonist plate containing HHnoCa with 240 μM glutamate, 2.4 mM glycine, and 7.2 mM CaCl2, which is 2.4× the desired final concentration of each reagent. Both the compound plate and co-agonist plate are 384-well polypropylene plates from Thermo Fisher Scientific, Waltham, Mass.\nThe assay is performed by first adding 10 μl solution from each well of the compound plate described above to the cell plate using a CyBiWell liquid handler (Analytik Jena AG, Jena, Germany), followed by 10 minutes pre-incubation in the dark. Cell plates are then loaded onto a Hamamatsu FDSS 6000 plate reader. After a 30-second baseline, 25 μl is added to each well from the co-agonist plate, and the fluorescence signal is recorded for another 2 minutes. FDSS software applies shading and autofluorescence correction, and resultant raw fluorescence measurements are exported in the form of a fluorescence ratio for each well to its own reading at time zero in the experiment. In each plate, negative control wells consist of wells where Ro 25-6981 and 5,7 dichlorokynurenic acid are present and co-agonist is applied in the absence of any added assay compound. Under these conditions, the Ca^2+ response to co-agonist is suppressed. Positive control wells also present in each plate contain 5,7 dichlorokynurenic acid but no Ro 25-6981, so that co-agonist addition results in a large Ca^2+ response. Compounds tested are evaluated on the basis of their ability to reverse the suppression of the Ca^2+ response mediated by Ro 25-6981, which is quantified as % reversal=100*(R−Rneg)/(Rpos−Rneg) where R is the fluorescence ratio for the test compound at the end of the experiment and Rneg and Rpos are the end ratios for the negative and positive controls, respectively. […]", "units": {"Response Recovered (%)": "%"}}
{"smiles": "Cn1nccc1-c1csc2ncn(CC(=O)N3CCCC3)c(=O)c12", "note": "[Example 33, 5-(1-methyl-1H-pyrazol-5-yl)-3-[2-oxo-2-(pyrrolidin-1-yl)ethyl]-3H,4H-thieno[2,3-d]pyrimidin-4-one]", "Response Recovered (%)": 1}
{"smiles": "O=C(Cn1cnc2scc(-c3ccc(OC(F)(F)F)cc3)c2c1=O)N1CCCC1", "note": "[Example 34, 3-[2-oxo-2-(pyrrolidin-1-yl)ethyl]-5-[4-(trifluoromethoxy)phenyl]-3H,4H-thieno[2,3-d]pyrimidin-4-one]", "Response Recovered (%)": 16}
{"smiles": "CC(C)(C)c1ccc(-c2csc3ncn(CC(=O)N4CCCC4)c(=O)c23)cc1", "note": "[Example 35, 5-(4-tert-butylphenyl)-3-[2-oxo-2-(pyrrolidin-1-yl)ethyl]-3H,4H-thieno[2,3-d]pyrimidin-4-one]", "Response Recovered (%)": 14}
{"smiles": "COc1ccc(-c2csc3ncn(CC(=O)N4CCCC4)c(=O)c23)cn1", "note": "[Example 36, 5-(6-methoxypyridin-3-yl)-3-[2-oxo-2-(pyrrolidin-1-yl)ethyl]-3H,4H-thieno[2,3-d]pyrimidin-4-one]", "Response Recovered (%)": 2}
{"smiles": "O=C(Cn1cnc2scc(-c3ccc(Cl)c(Cl)c3)c2c1=O)N1CCCC1", "note": "[Example 37, 5-(3,4-dichlorophenyl)-3-[2-oxo-2-(pyrrolidin-1-yl)ethyl]-3H,4H-thieno[2,3-d]pyrimidin-4-one]", "Response Recovered (%)": 61}
{"smiles": "O=C(Cn1cnc2scc(-c3ccc(C(F)(F)F)cc3F)c2c1=O)N1CCCC1", "note": "[Example 38]", "Response Recovered (%)": 10}
{"smiles": "O=C(Cn1cnc2scc(-c3cncc(F)c3)c2c1=O)N1CCCC1", "note": "[Example 39, 5-(5-fluoropyridin-3-yl)-3-[2-oxo-2-(pyrrolidin-1-yl)ethyl]-3H,4H-thieno└2,3-d┘pyrimidin-4-one]", "Response Recovered (%)": 3}
{"smiles": "O=C(Cn1cnc2scc(-c3cncnc3)c2c1=O)N1CCCC1", "note": "[Example 40, 3-[2-oxo-2-(pyrrolidin-1-yl)ethyl]-5-(pyrimidin-5-yl)-3H,4H-thieno[2,3-d]pyrimidin-4-one]", "Response Recovered (%)": 1}
{"smiles": "COc1ccc(-c2csc3ncn(CC(=O)N4CCCC4)c(=O)c23)cc1", "note": "[Example 41, 5-(4-methoxyphenyl)-3-[2-oxo-2-(pyrrolidin-1-yl)ethyl]-3H,4H-thieno[2,3-d]pyrimidin-4-one]", "Response Recovered (%)": 5}
{"smiles": "O=C(Cn1cnc2scc(-c3ccc(F)c(F)c3)c2c1=O)N1CCCC1", "note": "[Example 42, 5-(3,4-difluorophenyl)-3-[2-oxo-2-(pyrrolidin-1-yl)ethyl]-3H,4H-thieno[2,3-d]pyrimidin-4-one]", "Response Recovered (%)": 3}
{"smiles": "O=C(Cn1cnc2scc(-c3ccc(C(F)(F)F)cc3Cl)c2c1=O)N1CCCC1", "note": "[Example 43, 5-[2-chloro-4-(trifluoromethyl)phenyl]-3-[2-oxo-2-(pyrrolidin-1-yl)ethyl]-3H,4H-thieno[2,3-d]pyrimidin-4-one]", "Response Recovered (%)": 8}
{"smiles": "COc1ccc(C(F)(F)F)cc1-c1csc2ncn(CC(=O)N3CCCC3)c(=O)c12", "note": "[Example 44, 5-[2-methoxy-5-(trifluoromethyl)phenyl]-3-[2-oxo-2-(pyrrolidin-1-yl)ethyl]-3H,4H-thieno[2,3-d]pyrimidin-4-one]", "Response Recovered (%)": 4}
{"smiles": "O=C(Cn1cnc2scc(-c3cccc(Cl)c3Cl)c2c1=O)N1CCCC1", "note": "[Example 45, 5-(2,3-dichlorophenyl)-3-[2-oxo-2-(pyrrolidin-1-yl)ethyl]-3H,4H-thieno[2,3-d]pyrimidin-4-one]", "Response Recovered (%)": 7}
{"smiles": "O=C(Cn1cnc2scc(-c3ccnc(C(F)(F)F)c3)c2c1=O)N1CCCC1", "note": "[Example 46, 3-[2-oxo-2-(pyrrolidin-1-yl)ethyl]-5-[2-(trifluoromethyl)pyridin-4-yl]-3H,4H-thieno[2,3-d]pyrimidin-4-one]", "Response Recovered (%)": "−1"}
{"smiles": "O=C(Cn1cnc2scc(-c3ccc(F)c(C(F)(F)F)c3)c2c1=O)N1CCCC1", "note": "[Example 47, 5-[4-fluoro-3-(trifluoromethyl)phenyl]-3-[2-oxo-2-(pyrrolidin-1-yl)ethyl]-3H,4H-thieno[2,3-d]pyrimidin-4-one]", "Response Recovered (%)": 43}
{"smiles": "O=C(Cn1cnc2scc(-c3cc(C(F)(F)F)cc(C(F)(F)F)c3)c2c1=O)N1CCCC1", "note": "[Example 48, 5-[3,5-bis(trifluoromethyl)phenyl]-3-[2-oxo-2-(pyrrolidin-1-yl)ethyl]-3H,4H-thieno[2,3-d]pyrimidin-4-one]", "Response Recovered (%)": "−1"}
{"smiles": "CN(C)c1ccc(-c2csc3ncn(CC(=O)N4CCCC4)c(=O)c23)cc1", "note": "[Example 49, 5-[4-(dimethylamino)phenyl]-3-[2-oxo-2-(pyrrolidin-1-yl)ethyl]-3H,4H-thieno[2,3-d]pyrimidin-4-one]", "Response Recovered (%)": 0}
{"smiles": "Cc1cc(C(F)(F)F)ccc1-c1csc2ncn(CC(=O)N3CCCC3)c(=O)c12", "note": "[Example 50]", "Response Recovered (%)": 9}
{"smiles": "O=C(Cn1cnc2scc(-c3cccc(OC(F)(F)F)c3)c2c1=O)N1CCCC1", "note": "[Example 51, 3-[2-oxo-2-(pyrrolidin-1-yl)ethyl]-5-[3-(trifluoromethoxy)phenyl]-3H,4H-thieno└2,3-d┘pyrimidin-4-one]", "Response Recovered (%)": 27}
{"smiles": "O=C(Cn1cnc2scc(-c3ccccc3Cl)c2c1=O)N1CCCC1", "note": "[Example 52, 5-(2-chlorophenyl)-3-[2-oxo-2-(pyrrolidin-1-yl)ethyl]-3H,4H-thieno[2,3-d]pyrimidin-4-one]", "Response Recovered (%)": 4}
{"smiles": "O=C(Cn1cnc2scc(-c3ccc(F)cc3Cl)c2c1=O)N1CCCC1", "note": "[Example 53, 5-(2-chloro-4-fluorophenyl)-3-[2-oxo-2-(pyrrolidin-1-yl)ethyl]-3H,4H-thieno└2,3-d┘pyrimidin-4-one]", "Response Recovered (%)": 5}
{"smiles": "O=C(Cn1cnc2scc(-c3cc(C(F)(F)F)ccc3F)c2c1=O)N1CCCC1", "note": "[Example 54, 5-[2-fluoro-5-(trifluoromethyl)phenyl]-3-[2-oxo-2-(pyrrolidin-1-yl)ethyl]-3H,4H-thieno[2,3-d]pyrimidin-4-one]", "Response Recovered (%)": 20}
{"smiles": "O=C(Cn1cnc2scc(-c3cccc(C(F)(F)F)c3)c2c1=O)N1CCCC1", "note": "[Example 55, 3-[2-oxo-2-(pyrrolidin-1-yl)ethyl]-5-[3-(trifluoromethyl)phenyl]-3H,4H-thieno[2,3-d]pyrimidin-4-one]", "Response Recovered (%)": 33}
{"smiles": "CC(C(=O)N1CCCC1)n1cnc2scc(-c3ccc(Cl)c(C(F)(F)F)c3)c2c1=O", "note": "(stereo not drawn) [Example 56, 5-[4-chloro-3-(trifluoromethyl)phenyl]-3-[1-oxo-1-(pyrrolidin-1-yl)propan-2-yl]-3H,4H-thieno[2,3-d]pyrimidin-4-one]", "Response Recovered (%)": 0}
{"smiles": "CC(C(=O)N1CCCC1)n1cnc2scc(-c3ccc(F)c(Cl)c3)c2c1=O", "note": "(stereo not drawn) [Example 57, 5-(3-chloro-4-fluorophenyl)-3-[1-oxo-1-(pyrrolidin-1-yl)propan-2-yl]-3H,4H-thieno[2,3-d]pyrimidin-4-one]", "Response Recovered (%)": 3}
{"smiles": "O=C(Cn1cnc2scc(-c3ccc(F)c(Cl)c3)c2c1=O)N1CCC(F)C1", "note": "(stereo not drawn) [Example 58, 5-(3-chloro-4-fluorophenyl)-3-[2-(3-fluoropyrrolidin-1-yl)-2-oxoethyl]-3H,4H-thieno[2,3-d]pyrimidin-4-one]", "Response Recovered (%)": 65}
{"smiles": "O=C(Cn1cnc2scc(-c3ccc(Cl)c(F)c3)c2c1=O)N1CCC(F)C1", "note": "(stereo not drawn) [Example 59, 5-(4-chloro-3-fluorophenyl)-3-[2-(3-fluoropyrrolidin-1-yl)-2-oxoethyl]-3H,4H-thieno[2,3-d]pyrimidin-4-one]", "Response Recovered (%)": 43}
